The target of this experiment is T1, HCMV polymerase (Human cytomegalovirus, UniProt P08546).
T1 construct: made in house; host or cells: recombinant baculovirus-infected SF-9 cells
Nature of the experiment: HCMV polymerase assay (modified scintillation proximity assay). Format: biochemical. Particulars: modified SPA assay; compounds diluted in 100% DMSO; 4.5 mM DTT in polymerase buffer. The protocol: The HCMV polymerase assay is performed using a scintillation proximity assay (SPA) as described in several references, such as N. D. Cook, et al., Pharmaceutical Manufacturing International, pages 49-53 (1992); K. Takeuchi, Laboratory Practice, September issue (1992); U.S. Pat. No. 4,568,649 (1986); which are incorporated by reference herein. Reactions are performed in 96-well plates. The assay is conducted in 100 μl volume with 5.4 mM HEPES (pH 7.5), 11.7 mM KCl, 4.5 mM MgCl2, 0.36 mg/ml BSA, and 90 nM ^3H-dTTP. Assays are run with and without CHAPS, (3-[(3-Cholamidopropyl)-dimethylammonio]-1-propane-sulfonate) at a final concentration of 2 mM. HCMV polymerase is diluted in enzyme dilution buffer containing 50% glycerol, 250 mM NaCl, 10 mM HEPES (pH 7.5), 100 μg/ml BSA, and 0.01% sodium azide. The HCMV polymerase, which is expressed in recombinant baculovirus-infected SF-9 cells and purified according to literature procedures, is added at 10% (or 10 μl) of the final reaction volume, i.e., 100 μl. Compounds are diluted in 50% DMSO and 10 μl are added to each well. Control wells contain an equivalent concentration of DMSO. […] Plates are incubated 10 min. at 37 C., then equilibrated to room temperature, and counted on a Packard Topcount. Linear regressions are performed and IC50's are calculated using computer software. […]
Background: SPA uses beads or plates that emit light when radiolabelled molecules are held near them.

SMILES strings stand for the structures.

T1 sequence (P08546 whole entry): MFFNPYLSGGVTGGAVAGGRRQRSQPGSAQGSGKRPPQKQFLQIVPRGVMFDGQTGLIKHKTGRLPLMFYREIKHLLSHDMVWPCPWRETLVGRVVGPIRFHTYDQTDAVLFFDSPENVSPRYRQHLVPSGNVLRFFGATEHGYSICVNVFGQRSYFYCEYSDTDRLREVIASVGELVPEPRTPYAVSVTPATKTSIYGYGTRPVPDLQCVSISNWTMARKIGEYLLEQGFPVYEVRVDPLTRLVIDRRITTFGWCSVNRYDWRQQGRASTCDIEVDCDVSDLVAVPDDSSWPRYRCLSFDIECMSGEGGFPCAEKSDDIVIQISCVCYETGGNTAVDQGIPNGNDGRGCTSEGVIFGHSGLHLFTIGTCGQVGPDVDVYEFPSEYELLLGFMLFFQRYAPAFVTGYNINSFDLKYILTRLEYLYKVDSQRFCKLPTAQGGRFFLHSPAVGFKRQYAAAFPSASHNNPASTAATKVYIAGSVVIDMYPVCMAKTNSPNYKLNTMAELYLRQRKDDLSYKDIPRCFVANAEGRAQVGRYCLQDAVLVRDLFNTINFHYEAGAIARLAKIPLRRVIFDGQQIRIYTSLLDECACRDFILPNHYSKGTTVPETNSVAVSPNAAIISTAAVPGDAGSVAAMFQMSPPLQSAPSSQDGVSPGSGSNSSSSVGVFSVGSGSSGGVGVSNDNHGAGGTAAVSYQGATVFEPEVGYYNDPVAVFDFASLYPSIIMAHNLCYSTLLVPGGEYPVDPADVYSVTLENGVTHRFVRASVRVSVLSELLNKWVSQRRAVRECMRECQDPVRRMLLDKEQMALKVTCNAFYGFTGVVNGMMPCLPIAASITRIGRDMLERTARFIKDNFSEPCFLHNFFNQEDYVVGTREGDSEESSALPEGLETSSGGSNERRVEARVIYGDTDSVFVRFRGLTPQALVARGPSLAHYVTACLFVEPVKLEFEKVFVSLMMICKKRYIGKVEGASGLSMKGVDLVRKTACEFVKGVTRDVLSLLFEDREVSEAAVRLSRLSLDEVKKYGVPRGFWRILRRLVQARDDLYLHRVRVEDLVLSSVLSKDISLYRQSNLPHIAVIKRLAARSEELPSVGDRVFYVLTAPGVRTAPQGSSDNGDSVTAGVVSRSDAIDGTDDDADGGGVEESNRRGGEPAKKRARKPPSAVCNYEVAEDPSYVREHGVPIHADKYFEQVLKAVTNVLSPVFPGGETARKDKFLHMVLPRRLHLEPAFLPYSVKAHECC

The IC50 is the concentration that inhibits the measured activity by half. Compound `O=C(NCc1ccc(Cl)cc1)c1cn2c3c(cc(CN4CCOCC4)cc3c1=S)OCC2` [Example 1, N-(4-chlorobenzyl)-9-(4-morpholinylmethyl)-7-thioxo-2,3-dihydro-7H-[1,4]oxazino[2,3,4-ij]quinoline-6-carboxamide] came in with an IC50 of 0.06 µM.

These data come from patent US20020143013A1, “Thioxazinoquinolones as antiviral agents” (priority 2001, published 2002).
